The values below come from patent publication US20260098025A1, “DIMERIC COMPOUNDS AS INHIBITORS OF GLYCOGEN SYNTHASE 1 (GYS1) AND METHODS OF USE THEREOF” (Maze Therapeutics, Inc., priority 2022, published 2026).

Usually IC50 stands for the point on the concentration scale where inhibition reaches its midpoint.

For the experiment, the target named is T1, recombinant hGYS1/GN1 protein (Homo sapiens, UniProt P13807).
T1 sequence (P13807 1-737): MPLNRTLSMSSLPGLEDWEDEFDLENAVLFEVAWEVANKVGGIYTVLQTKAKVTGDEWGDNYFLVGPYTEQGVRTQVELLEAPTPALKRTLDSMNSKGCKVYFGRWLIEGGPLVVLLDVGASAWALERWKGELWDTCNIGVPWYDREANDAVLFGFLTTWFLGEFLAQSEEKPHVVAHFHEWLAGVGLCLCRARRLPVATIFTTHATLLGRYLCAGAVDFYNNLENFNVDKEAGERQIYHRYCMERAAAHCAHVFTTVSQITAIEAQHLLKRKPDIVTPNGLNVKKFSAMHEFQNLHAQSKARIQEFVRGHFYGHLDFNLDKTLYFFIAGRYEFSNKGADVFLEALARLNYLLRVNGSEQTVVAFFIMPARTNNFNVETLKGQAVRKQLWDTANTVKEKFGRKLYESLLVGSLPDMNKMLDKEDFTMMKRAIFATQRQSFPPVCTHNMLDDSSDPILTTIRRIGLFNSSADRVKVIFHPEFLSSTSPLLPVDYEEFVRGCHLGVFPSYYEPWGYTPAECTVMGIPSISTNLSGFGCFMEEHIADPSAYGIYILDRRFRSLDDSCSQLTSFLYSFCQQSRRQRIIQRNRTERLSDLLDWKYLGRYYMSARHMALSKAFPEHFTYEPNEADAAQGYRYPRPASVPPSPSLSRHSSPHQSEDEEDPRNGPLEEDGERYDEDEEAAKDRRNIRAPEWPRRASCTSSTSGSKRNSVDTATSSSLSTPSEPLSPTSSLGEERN
T1 sequence (P46976 1-350 partner): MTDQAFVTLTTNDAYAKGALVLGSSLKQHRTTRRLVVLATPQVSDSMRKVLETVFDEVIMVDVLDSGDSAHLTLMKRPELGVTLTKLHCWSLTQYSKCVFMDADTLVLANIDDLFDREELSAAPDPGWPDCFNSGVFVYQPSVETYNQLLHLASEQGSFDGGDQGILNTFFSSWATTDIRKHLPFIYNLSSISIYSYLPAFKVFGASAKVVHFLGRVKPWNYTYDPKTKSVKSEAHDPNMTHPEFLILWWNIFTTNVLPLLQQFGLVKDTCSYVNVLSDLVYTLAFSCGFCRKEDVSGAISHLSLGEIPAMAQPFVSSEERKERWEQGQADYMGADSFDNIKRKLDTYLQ
The experiment can be described thus: GYS1 coupled enzyme assay (PK/LDH, NADH absorbance at 340 nm). The experiment is classed as biochemical. Particulars: geometric mean of at least 2 assay runs on separate days; hGYS1/GN1 50 nM, Glucose-6-Phosphate 1 mM, UDP-Glucose 0.8 mM. From the text:
The GYS1 coupled enzyme assay is a kinetic biochemical assay that indirectly quantifies the rate of glycogen synthesis by coupling the conversion of GYS1 substrate UDP-glucose into UDP with downstream enzymatic reactions. UDP is released from UDP-glucose as glucose monomers are linked into the growing glycogen strand by GYS1. The coupled assay then proceeds with pyruvate kinase utilizing UDP and phospho(enol)pyruvate (PEP) to form pyruvate. Lactate dehydrogenase then converts pyruvate and NADH into lactate and NAD+. Oxidation of NADH to NAD+ can be measured continuously with a plate reader by quantifying the decrease in NADH absorbance at 340 nm over time.
Compounds that inhibit the hGYS1 enzyme and, subsequently, the downstream conversion of NADH to NAD+, were tested using assay ready plates (black, clear bottom 384 well plates) in a final DMSO reaction volume of 2.5% DMSO. The Assay Buffer contained 50 mM Tris pH 7.5, 2 mM MgCl2, and 100 mM KCl. Fresh stocks of BSA at a final concentration of 0.02% and TCEP at 1 mM were added before splitting buffer into hGYS1 buffer and substrate buffer. To the hGYS1 buffer, rabbit liver glycogen was added at a final concentration of 0.2% glycogen. Glucose-6-Phosphate was added at 1 mM, recombinant hGYS1/GN1 protein was added at 50 nM to the substrate buffer, phosphoenolpyruvate (PEP) was added at 2 mM, UDP-Glucose was added at 0.8 mM, NADH) was added at 0.6 mM, and Pyruvate Kinase/Lactate Dehydrogenase was added at 20 units/mL. The reaction was initiated by mixing hGYS1 buffer and substrate buffer at a 1:1 ratio. Both buffers were plated using a liquid dispensing device with hGYS1 buffer plated first followed by the substrate buffer. Plates were spun briefly to eliminate air bubbles and are immediately read in continuous mode at an absorbance of 340 nm, for 10 time points in one-minute increments, for a total of 10 minutes. The slope from these 10 time points was normalized to the positive and negative control wells. The duplicate % inhibition values are then averaged and fit to a Hill equation for dose response according to the Levenberg-Marquardt algorithm with the Hill equation maximum set to 100 and the minimum set to 0.
The results are shown in Table 2 below, which reports the IC50 of each compound. Unless otherwise specified, IC50 values are reported as the geometric mean of at least 2 assay runs on separate days. Each run represents the average of a technical replicate, where each compound was assayed twice in the same plate. As shown in the table below, the compounds of the present invention are potent inhibitors of human GYS1. A superscript “#” symbol in Table 2 indicates results from a single assay run.
Note that, in Table 2, the compounds are referred to by the corresponding Compound No. in Table 1, which is also referred to in the synthetic examples.
For the molecule `O=C(N[C@@H](c1ccccc1)c1ccc(C2CC2)c(F)n1)[C@@H]1C[C@@H](F)CN1C(=O)Cn1cc(OCCOCCOc2cn(CC(=O)N3C[C@H](F)C[C@H]3C(=O)N[C@@H](c3ccccc3)c3ccc(C4CC4)c(F)n3)nn2)nn1` [Compound 1, (2S,2′S,4R,4′R)-1,1′-(2,2′-(((oxybis(ethane-2,1-diyl))bis(oxy))bis(1H-1,2,3-triazole-4,1-diyl))bis(acetyl))bis(N-((S)-(5-cyclopropyl-6-fluoropyridin-2-yl)(phenyl)methyl)-4-fluoropyrrolidine-2-carboxamide)], the IC50 turned out to be 0.0108 µM.

With `O=C(N[C@@H](c1ccccc1)c1ccc(C2CC2)c(F)n1)[C@@H]1C[C@@H](F)CN1C(=O)COCCOCCOCCOCCOCCOCCOCC(=O)N1C[C@H](F)C[C@H]1C(=O)N[C@@H](c1ccccc1)c1ccc(C2CC2)c(F)n1` [Compound 2, (2S,2′S,4R,4′R)-1,1′-(3,6,9,12,15,18,21-heptaoxatricosanedioyl)bis(N-((S)-(5-cyclopropyl-6-fluoropyridin-2-yl)(phenyl)methyl)-4-fluoropyrrolidine-2-carboxamide)], the IC50 came to 0.0056 µM.

Consider `O=C(COCCOCCOCCOCCOCCOCCOCCOCCOCCOCCOCCOCC(=O)N[C@@H](c1ccccc1)c1ccc(C2CC2)c(F)n1)N[C@@H](c1ccccc1)c1ccc(C2CC2)c(F)n1` [Compound 3, N^1,N^38-bis((S)-(5-cyclopropyl-6-fluoropyridin-2-yl)(phenyl)methyl)-3,6,9,12,15,18,21,24,27,30,33,36-dodecaoxaoctatriacontanediamide], for which the IC50 came to 5.71 µM.

As to `O=C(N[C@@H](c1ccccc1)c1ccc(C2CC2)c(F)n1)[C@@H]1C[C@@H](F)CN1C(=O)COCCOCC(=O)N1C[C@H](F)C[C@H]1C(=O)N[C@@H](c1ccccc1)c1ccc(C2CC2)c(F)n1` [Compound 4, (2S,2′S,4R,4′R)-1,1′-(2,2′-(ethane-1,2-diylbis(oxy))bis(acetyl))bis(N-((S)-(5-cyclopropyl-6-fluoropyridin-2-yl)(phenyl)methyl)-4-fluoropyrrolidine-2-carboxamide)], the IC50 was 8.91 µM.

As to `O=C(N[C@@H](c1ccccc1)c1ccc(C2CC2)c(F)n1)[C@@H]1C[C@@H](F)CN1C(=O)COCCOCCOCCOCCOCCOCC(=O)N1C[C@H](F)C[C@H]1C(=O)N[C@@H](c1ccccc1)c1ccc(C2CC2)c(F)n1` [Compound 5, (2S,2′S,4R,4′R)-1,1′-(3,6,9,12,15,18-hexaoxaicosanedioyl)bis(N-((S)-(5-cyclopropyl-6-fluoropyridin-2-yl)(phenyl)methyl)-4-fluoropyrrolidine-2-carboxamide)], the IC50 came to 0.0054 µM.

On to `O=C(COCCOCCOCCOCCOCCOCCOCCOCCOCCOCCOCC(=O)N[C@@H](c1ccccc1)c1ccc(C2CC2)c(F)n1)N[C@@H](c1ccccc1)c1ccc(C2CC2)c(F)n1` [Compound 6, N^1,N^35-bis((S)-(5-cyclopropyl-6-fluoropyridin-2-yl)(phenyl)methyl)-3,6,9,12,15,18,21,24,27,30,33-undecaoxapentatriacontanediamide], for which the IC50 stood at 7.5 µM.

As for `O=C(N[C@@H](c1ccccc1)c1ccc(C2CC2)c(F)n1)[C@@H]1C[C@@H](F)CN1C(=O)Cn1cc(COCCOCc2cn(CC(=O)N3C[C@H](F)C[C@H]3C(=O)N[C@@H](c3ccccc3)c3ccc(C4CC4)c(F)n3)nn2)nn1` [Compound 7, (2S,2′S,4R,4′R)-1,1′-(2,2′-(((ethane-1,2-diylbis(oxy))bis(methylene))bis(1H-1,2,3-triazole-4,1-diyl))bis(acetyl))bis(N-((S)-(5-cyclopropyl-6-fluoropyridin-2-yl)(phenyl)methyl)-4-fluoropyrrolidine-2-carboxamide)], the IC50 amounted to 0.0112 µM.

For the molecule `O=C(N[C@@H](c1ccccc1)c1ccc(C2CC2)c(F)n1)[C@@H]1C[C@@H](F)CN1C(=O)Cn1cc(COCCOc2cn(CC(=O)N3C[C@H](F)C[C@H]3C(=O)N[C@@H](c3ccccc3)c3ccc(C4CC4)c(F)n3)nn2)nn1` [Compound 8, (2S,4R)-N-((S)-(5-cyclopropyl-6-fluoropyridin-2-yl)(phenyl)methyl)-1-(2-(4-(2-((1-(2-((2S,4R)-2-(((S)-(5-cyclopropyl-6-fluoropyridin-2-yl)(phenyl)methyl)carbamoyl)-4-fluoropyrrolidin-1-yl)-2-oxoethyl)-1H-1,2,3-triazol-4-yl)methoxy)ethoxy)-1H-1,2,3-triazol-1-yl)acetyl)-4-fluoropyrrolidine-2-carboxamide], the IC50 was determined as 0.0052 µM.

As to `O=C(N[C@@H](c1ccccc1)c1ccc(C2CC2)c(F)n1)[C@@H]1C[C@@H](F)CN1C(=O)Cn1cc(OCCOc2cn(CC(=O)N3C[C@H](F)C[C@H]3C(=O)N[C@@H](c3ccccc3)c3ccc(C4CC4)c(F)n3)nn2)nn1` [Compound 9, (2S,2′S,4R,4′R)-1,1′-(2,2′-((ethane-1,2-diylbis(oxy))bis(1H-1,2,3-triazole-4,1-diyl))bis(acetyl))bis(N-((S)-(5-cyclopropyl-6-fluoropyridin-2-yl)(phenyl)methyl)-4-fluoropyrrolidine-2-carboxamide)], the IC50 came out at 0.0201 µM.

With `O=C(N[C@@H](c1ccccc1)c1ccc(C2CC2)c(F)n1)[C@@H]1C[C@@H](F)CN1C(=O)COCCOCCOCCOCCOCC(=O)N1C[C@H](F)C[C@H]1C(=O)N[C@@H](c1ccccc1)c1ccc(C2CC2)c(F)n1` [Compound 10, (2S,2′S,4R,4′R)-1,1′-(3,6,9,12,15-pentaoxaheptadecanedioyl)bis(N-((S)-(5-cyclopropyl-6-fluoropyridin-2-yl)(phenyl)methyl)-4-fluoropyrrolidine-2-carboxamide)], the IC50 was determined as 0.0144 µM.

On to `O=C(N[C@@H](c1ccccc1)c1ccc(C2CC2)c(F)n1)[C@@H]1C[C@@H](F)CN1C(=O)COCCOCCOCCOCC(=O)N1C[C@H](F)C[C@H]1C(=O)N[C@@H](c1ccccc1)c1ccc(C2CC2)c(F)n1` [Compound 11, (2S,2′S,4R,4′R)-1,1′-(3,6,9,12-tetraoxatetradecanedioyl)bis(N-((S)-(5-cyclopropyl-6-fluoropyridin-2-yl)(phenyl)methyl)-4-fluoropyrrolidine-2-carboxamide)], for which the IC50 worked out at 0.0146 µM.

`O=C(N[C@@H](c1ccccc1)c1ccc(C2CC2)c(F)n1)[C@@H]1C[C@@H](F)CN1C(=O)COCCOCCOCC(=O)N1C[C@H](F)C[C@H]1C(=O)N[C@@H](c1ccccc1)c1ccc(C2CC2)c(F)n1` [Compound 12, (2S,2′S,4R,4′R)-1,1′-(2,2′-((oxybis(ethane-2,1-diyl))bis(oxy))bis(acetyl))bis(N-((S)-(5-cyclopropyl-6-fluoropyridin-2-yl)(phenyl)methyl)-4-fluoropyrrolidine-2-carboxamide)]: the IC50 worked out at 0.0821 µM.
